In US10183943B2, “Heterocyclic compounds and their use in preventing or treating bacterial infections” (MUTABILIS, priority 2015, dated 2019):
Read-outs that look alike come from different tables or passages of the source.

Columns and labels:
OXA-15 = molecular target: T1, OXA-15 (Pseudomonas aeruginosa, UniProt Q51574); experiment: biochemical
T1 construct: made in house; host or cells: E. coli

KPC-2 = molecular target: T2, KPC-2 (Klebsiella pneumoniae, UniProt Q9F663); experiment: β-lactamase inhibitory activity, determination of IC50 (nitrocefin hydrolysis); type: biochemical
T2 construct: made in house; host or cells: E. coli
T2 sequence (Q9F663 25-293 limits assumed): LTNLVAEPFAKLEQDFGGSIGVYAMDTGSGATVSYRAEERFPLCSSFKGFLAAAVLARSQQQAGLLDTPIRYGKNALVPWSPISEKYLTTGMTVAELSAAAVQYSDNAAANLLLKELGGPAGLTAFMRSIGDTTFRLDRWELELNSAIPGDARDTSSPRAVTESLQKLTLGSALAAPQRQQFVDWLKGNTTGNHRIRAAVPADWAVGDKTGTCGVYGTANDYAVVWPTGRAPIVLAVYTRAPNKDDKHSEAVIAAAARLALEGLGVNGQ

OXA-48 = molecular target: T3, OXA-48 (Klebsiella pneumoniae, UniProt Q6XEC0); experiment: as above; type: biochemical
T3 construct: made in house; host or cells: E. coli
T3 sequence (Q6XEC0 23-265 limits assumed): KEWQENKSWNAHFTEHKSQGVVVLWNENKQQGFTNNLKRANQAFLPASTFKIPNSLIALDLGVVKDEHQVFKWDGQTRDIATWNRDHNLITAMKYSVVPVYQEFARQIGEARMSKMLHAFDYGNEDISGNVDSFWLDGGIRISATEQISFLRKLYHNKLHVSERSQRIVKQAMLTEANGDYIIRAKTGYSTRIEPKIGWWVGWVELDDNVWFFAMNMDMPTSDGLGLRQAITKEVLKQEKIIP

SHV-1 = molecular target: T4, SHV-1 (Klebsiella pneumoniae, UniProt P0AD64); experiment: as above; type: biochemical
T4 construct: made in house; host or cells: E. coli
T4 sequence (P0AD64 22-286): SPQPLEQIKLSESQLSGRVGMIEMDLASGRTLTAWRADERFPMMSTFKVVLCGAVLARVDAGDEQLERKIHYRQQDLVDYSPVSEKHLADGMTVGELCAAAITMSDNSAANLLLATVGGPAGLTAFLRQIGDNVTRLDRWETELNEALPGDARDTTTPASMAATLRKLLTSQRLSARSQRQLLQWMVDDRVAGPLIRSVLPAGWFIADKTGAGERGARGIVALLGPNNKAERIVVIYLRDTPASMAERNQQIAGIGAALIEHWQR

OXA-11 = molecular target: T5, OXA-11 (Pseudomonas aeruginosa, UniProt Q06778); experiment: as above; type: biochemical
T5 construct: made in house; host or cells: E. coli
T5 sequence (Q06778 21-266): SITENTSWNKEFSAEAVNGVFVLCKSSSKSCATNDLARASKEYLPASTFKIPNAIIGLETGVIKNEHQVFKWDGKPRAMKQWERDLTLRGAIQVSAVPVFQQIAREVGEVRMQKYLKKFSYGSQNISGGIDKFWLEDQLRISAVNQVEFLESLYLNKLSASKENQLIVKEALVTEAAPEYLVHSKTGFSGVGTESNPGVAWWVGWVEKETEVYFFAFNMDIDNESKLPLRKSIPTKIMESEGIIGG

CTX-M-15 = molecular target: T6, CTX-M-15 (Escherichia coli, UniProt Q9EXV5); experiment: as above; type: biochemical
T6 construct: made in house; host or cells: E. coli
T6 sequence (Q9EXV5 entry or part of it): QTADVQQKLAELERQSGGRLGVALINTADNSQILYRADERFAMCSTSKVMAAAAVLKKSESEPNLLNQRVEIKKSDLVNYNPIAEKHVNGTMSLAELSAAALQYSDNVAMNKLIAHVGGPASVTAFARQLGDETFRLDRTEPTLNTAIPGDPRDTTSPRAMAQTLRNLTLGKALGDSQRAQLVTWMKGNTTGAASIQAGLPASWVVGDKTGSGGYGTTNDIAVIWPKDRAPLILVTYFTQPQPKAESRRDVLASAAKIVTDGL

TEM-1 = molecular target: T7, TEM-1 (Escherichia coli, UniProt P62593); experiment: as above; type: biochemical
T7 construct: made in house; host or cells: E. coli
T7 sequence (P62593 24-286 limits assumed): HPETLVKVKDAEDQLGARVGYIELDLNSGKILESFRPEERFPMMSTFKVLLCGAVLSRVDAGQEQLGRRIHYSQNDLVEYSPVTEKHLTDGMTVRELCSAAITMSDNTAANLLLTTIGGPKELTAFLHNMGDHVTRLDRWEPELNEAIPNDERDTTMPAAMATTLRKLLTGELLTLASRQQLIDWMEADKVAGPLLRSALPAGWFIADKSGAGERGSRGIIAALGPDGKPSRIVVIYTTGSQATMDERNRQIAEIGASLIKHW

AmpC P. aeruginosa = AmpC P. aeruginosa (Pseudomonas aeruginosa, UniProt P24735); experiment: as above
AmpC P. aeruginosa, sequence (P24735 27-397): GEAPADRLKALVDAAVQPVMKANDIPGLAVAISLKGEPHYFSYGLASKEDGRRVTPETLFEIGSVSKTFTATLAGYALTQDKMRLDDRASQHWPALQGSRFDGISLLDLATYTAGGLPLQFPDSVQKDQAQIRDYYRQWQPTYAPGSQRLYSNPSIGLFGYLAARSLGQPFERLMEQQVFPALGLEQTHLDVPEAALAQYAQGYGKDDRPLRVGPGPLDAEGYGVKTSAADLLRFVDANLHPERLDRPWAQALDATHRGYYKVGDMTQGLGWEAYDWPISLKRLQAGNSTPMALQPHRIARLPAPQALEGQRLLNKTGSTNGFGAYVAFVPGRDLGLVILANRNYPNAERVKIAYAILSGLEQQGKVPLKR

[1] = test system: K. pneumoniae UFR24 (TEM-1, SHV-2, SHV-11, OXA-1, OXA-48, OXA-47); experiment: MIC of compounds alone, broth microdilution; type: cell-based; details: Klebsiella pneumoniae, read-out: MIC compounds of the invention alone
Method in brief: (§1)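 Broth microdilution per CLSI M7-A7: compounds alone, in DMSO, challenged with log-phase bacteria at 5×10^5 cfu/mL in cation-adjusted Mueller-Hinton broth. Plates incubated 16-20 h at 35° C in ambient air; MIC is the lowest concentration preventing visible growth.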

[2] = test system: E. cloacae UFR51 (SHV-12, IMP-8); experiment: MIC of compounds alone, broth microdilution; type: cell-based; details: Enterobacter cloacae, read-out: MIC compounds of the invention alone
Method in brief: as §1

[3] = test system: E. coli UFR18 (CTX-M-15, OXA-204); experiment: MIC of compounds alone, broth microdilution; type: cell-based; details: Escherichia coli, read-out: MIC compounds of the invention alone
Method in brief: as §1

[4] = test system: K. pneumoniae 6299 (TEM-1, SHV-11, OXA-163); experiment: MIC of compounds alone, broth microdilution; type: cell-based; details: Klebsiella pneumoniae, read-out: MIC compounds of the invention alone
Method in brief: as §1

[5] = test system: K. pneumoniae 200047 (TEM-1, SHV-32, CTX-M-15, OXA-1); experiment: MIC of compounds alone, broth microdilution; type: cell-based; details: Klebsiella pneumoniae, read-out: MIC compounds of the invention alone
Method in brief: as §1

[6] = test system: E. cloacae 260508 (TEM-1, CTX-M-15); experiment: MIC of compounds alone, broth microdilution; type: cell-based; details: Enterobacter cloacae, read-out: MIC compounds of the invention alone
Method in brief: as §1

[7] = test system: K. pneumoniae UFR39 (CTX-M-15, NDM-1); experiment: MIC of compounds alone, broth microdilution; type: cell-based; details: Klebsiella pneumoniae, read-out: MIC compounds of the invention alone
Method in brief: as §1

E. coli RGN238 (OXA-1) = experiment: MIC of compounds alone, broth microdilution; type: cell-based; details: Escherichia coli, read-out: MIC compounds of the invention alone
Method in brief: as §1

E. cloacae P99 (AmpC) = experiment: MIC of compounds alone, broth microdilution; type: cell-based; details: Enterobacter cloacae, read-out: MIC compounds of the invention alone
Method in brief: as §1

[8] = test system: E. coli 131119 (TEM-1, OXA-48); experiment: MIC of compounds alone, broth microdilution; type: cell-based; details: Escherichia coli, read-out: MIC compounds of the invention alone
Method in brief: as §1

[9] = test system: E. cloacae UFR70 (TEM-1, CTX-M-15, CMY-2, OXA-1, Porin loss); experiment: MIC of compounds alone, broth microdilution; type: cell-based; details: Enterobacter cloacae, read-out: MIC compounds of the invention alone
Method in brief: as §1

[10] = test system: E. cloacae UFR85 (TEM-1, CTX-M-15, AmpC); experiment: MIC of compounds alone, broth microdilution; type: cell-based; details: Enterobacter cloacae, read-out: MIC compounds of the invention alone
Method in brief: as §1

[11] = test system: K. pneumoniae 160143 (TEM-1, SHV-1, CTX-M-15, KPC-2, OXA-1); experiment: MIC of compounds alone, broth microdilution; type: cell-based; details: Klebsiella pneumoniae, read-out: MIC compounds of the invention alone
Method in brief: as §1

[12] = test system: K. oxytoca UFR21 (TEM-1, CTX-M-15, OXA-48); experiment: MIC of compounds alone, broth microdilution; type: cell-based; details: Klebsiella oxytoca, read-out: MIC compounds of the invention alone
Method in brief: as §1

[13] = test system: E. coli UFR74 (SHV-1, DHA-1); experiment: MIC of compounds alone, broth microdilution; type: cell-based; details: Escherichia coli, read-out: MIC compounds of the invention alone
Method in brief: as §1

[14] = test system: E. coli UFR32 (TEM-1, VEB-1, OXA-10); experiment: MIC of compounds alone, broth microdilution; type: cell-based; details: Escherichia coli, read-out: MIC compounds of the invention alone
Method in brief: as §1

[15] = test system: K. pneumoniae BAA-1898 (TEM-1, SHV-11, SHV-12, KPC-2); experiment: MIC of compounds alone, broth microdilution; type: cell-based; details: Klebsiella pneumoniae
Method in brief: as §1

[16] = test system: P. aeruginosa CIP107051 (TEM-24); experiment: MIC of compounds alone, broth microdilution; type: cell-based; details: Pseudomonas aeruginosa
Method in brief: as §1

[17] = test system: E. coli UFR41 (TEM-1, CTX-M-15, CMY-2, OXA-1, NDM-4); experiment: MIC of compounds alone, broth microdilution; type: cell-based; details: Escherichia coli, read-out: MIC compounds of the invention alone
Method in brief: as §1

[18] = test system: E. coli UFR61O (TEM-1, KPC-2); experiment: MIC of compounds alone, broth microdilution; type: cell-based; details: Escherichia coli, read-out: MIC compounds of the invention alone
Method in brief: as §1

[19] = test system: E. coli 190317 (TEM-1, SHV-12, CTX-M-15, OXA-1); experiment: MIC of compounds alone, broth microdilution; type: cell-based; details: Escherichia coli, read-out: MIC compounds of the invention alone
Method in brief: as §1

[20] = test system: K. pneumoniae UFR77 (CMY-2); experiment: MIC of compounds alone, broth microdilution; type: cell-based; details: Klebsiella pneumoniae, read-out: MIC compounds of the invention alone
Method in brief: as §1

[21] = test system: K. pneumoniae UFR68 (TEM-1, SHV-11, CTX-M-15, KPC-3); experiment: MIC of compounds alone, broth microdilution; type: cell-based; details: Klebsiella pneumoniae, read-out: MIC compounds of the invention alone
Method in brief: as §1

AmpC (P99) = AmpC (P99) (Enterobacter cloacae, UniProt P05364); experiment: β-lactamase inhibitory activity, determination of IC50 (nitrocefin hydrolysis)
AmpC (P99), sequence (P05364 21-381): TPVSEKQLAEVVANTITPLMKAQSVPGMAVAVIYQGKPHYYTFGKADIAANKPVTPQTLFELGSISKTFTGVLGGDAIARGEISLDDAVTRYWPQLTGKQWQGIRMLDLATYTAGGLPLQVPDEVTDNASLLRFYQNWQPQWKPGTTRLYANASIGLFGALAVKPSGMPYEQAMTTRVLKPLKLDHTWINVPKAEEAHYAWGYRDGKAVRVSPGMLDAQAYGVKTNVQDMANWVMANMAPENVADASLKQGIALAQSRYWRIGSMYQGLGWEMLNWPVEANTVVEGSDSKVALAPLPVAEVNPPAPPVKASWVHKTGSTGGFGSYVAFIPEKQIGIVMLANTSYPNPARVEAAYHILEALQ

OXA-1 = molecular target: T8, OXA-1 (Escherichia coli, UniProt P13661); experiment: as above; type: biochemical
T8 construct: made in house; host or cells: E. coli
T8 sequence (P13661 26-276): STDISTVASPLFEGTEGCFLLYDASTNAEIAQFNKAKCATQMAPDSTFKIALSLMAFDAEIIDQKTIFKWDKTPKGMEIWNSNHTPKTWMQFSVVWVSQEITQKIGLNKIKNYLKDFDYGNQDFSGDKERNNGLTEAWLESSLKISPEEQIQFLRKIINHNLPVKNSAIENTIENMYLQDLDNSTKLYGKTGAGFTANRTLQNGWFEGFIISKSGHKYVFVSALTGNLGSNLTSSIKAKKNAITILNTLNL

[22] = test system: E. cloacae UFR51 (SHV-12, IMP-8); experiment: MIC of ceftazidime (CAZ) in combination with compounds at 4 μg/mL, broth microdilution; type: cell-based; details: strain UFR51; MIC of CAZ with compound fixed at 4 μg/mL
Method: (§2) Method 2: MIC of Compounds and Synergy with Ceftazidime Against Bacterial Isolates (Table 2 and 3)
(§3) Compounds of the present invention were assessed against genotyped bacterial strains alone or in combination with the β-lactam ceftazidime (CAZ). In the assays, MICs of said compounds, or of ceftazidime at fixed concentrations of said compounds were determined by the broth microdilution method according to the Clinical Laboratory Standards Institute (CLSI-M7-A7). Briefly, compounds alone according to the invention were prepared in DMSO and spotted (2 μL each) on sterile polystyrene plates (Corning, 3788). Compounds and ceftazidime dilutions were prepared in DMSO and spotted (1 μL each) on sterile polystyrene plates (Corning, 3788). Log phase bacterial suspensions were adjusted to a final density of 5×10^5 cfu/mL in cation-adjusted Mueller-Hinton broth (Becton-Dickinson) and added to each well (98 μL). Microplates were incubated for 16-20 h at 35° C. in ambient air. The MIC of the compounds was defined as the lowest concentration of said compounds that prevented bacterial growth as read by visual inspection. The MIC of ceftazidime at each compound concentration was defined as the lowest concentration of ceftazidime that prevented bacterial growth as read by visual inspection.

[23] = test system: E. coli UFR41 (TEM-1, CTX-M-15, CMY-2, OXA-1, NDM-4); experiment: as above; type: cell-based; details: strain UFR41; MIC of CAZ with compound fixed at 4 μg/mL
Method: as §2, §3

T1 sequence (Q51574 22-275): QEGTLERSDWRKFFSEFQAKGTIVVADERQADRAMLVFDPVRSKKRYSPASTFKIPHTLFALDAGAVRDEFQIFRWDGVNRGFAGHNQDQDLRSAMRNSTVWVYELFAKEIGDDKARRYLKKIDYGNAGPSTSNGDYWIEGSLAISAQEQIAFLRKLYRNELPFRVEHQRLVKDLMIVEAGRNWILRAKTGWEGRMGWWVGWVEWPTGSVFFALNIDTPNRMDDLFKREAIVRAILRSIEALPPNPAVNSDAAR

SMILES: O=C1N2CC=C(c3cnoc3)C(C2)N1OC(F)(F)C(=O)[O-].[Li+] (centres unmarked) [Example 6, Lithium difluoro-(4-isoxazol-4-yl-7-oxo-1,6-diaza-bicyclo[3.2.1]oct-3-en-6-yloxy)-acetate]
- IC50 (OXA-15): 28 nM
- IC50 (KPC-2): 460 nM
- IC50 (OXA-48): 3.7 nM
- IC50 (SHV-1): 18 nM
- IC50 (OXA-11): 180 nM
- IC50 (CTX-M-15): 1.7 nM
- IC50 (TEM-1): 7.3 nM
- IC50 (AmpC P. aeruginosa): 4200 nM
- MIC [1]: > 32 µg/mL
- MIC [2]: 2 µg/mL
- MIC [3]: 2 µg/mL
- MIC [4]: > 32 µg/mL
- MIC [5]: 32 µg/mL
- MIC [6]: 4 µg/mL
- MIC [7]: 4 µg/mL
- MIC (E. coli RGN238 (OXA-1)): 16 µg/mL
- MIC (E. cloacae P99 (AmpC)): 4 µg/mL
- MIC [8]: 4 µg/mL
- MIC [9]: 16 µg/mL
- MIC [10]: > 32 µg/mL
- MIC [11]: > 32 µg/mL
- MIC [12]: > 32 µg/mL
- MIC [13]: > 32 µg/mL
- MIC [14]: 2 µg/mL
- MIC ([15]; BAA1898, read-out: MIC compounds of the invention alone): > 32 µg/mL
- MIC ([16]; CIP107051, read-out: MIC compounds of the invention alone): > 32 µg/mL
- MIC [17]: > 32 µg/mL
- MIC [18]: 8 µg/mL
- MIC [19]: 2 µg/mL
- MIC [20]: > 32 µg/mL
- MIC [21]: > 32 µg/mL
- IC50 (AmpC (P99)): 1800 nM
- IC50 (OXA-1): 1700 nM

SMILES: O=C1N2CC(c3cccnc3)=CC(C2)N1OS(=O)(=O)[O-].[Na+] (centres unmarked) [Example 41, Sodium [3-(3-pyridyl)-7-oxo-1,6-diazabicyclo[3.2.1]oct-3-en-6-yl]sulfate]
- IC50 (OXA-15): 150 nM
- IC50 (KPC-2; class (A), nitrocefin 200 μM, 30 min pre-incubation, read-out: IC50 β-lactamase KPC-2): 9 nM
- IC50 (OXA-48; class (D), nitrocefin 200 μM, 30 min pre-incubation, read-out: IC50 β-lactamase OXA-48): 1.4 nM
- MIC combination of CAZ and compounds of the invention at 4 μg/mL [22]: <0.25 µg/mL
- MIC combination of CAZ and compounds of the invention at 4 μg/mL [23]: <0.25 µg/mL
- IC50 (SHV-1): 3.6 nM
- IC50 (OXA-11): 840 nM
- IC50 (CTX-M-15; class (A), nitrocefin 200 μM, 30 min pre-incubation, read-out: IC50 β-lactamase CTX-M-15): 2.6 nM
- IC50 (TEM-1): 1.8 nM
- IC50 (AmpC P. aeruginosa): 190 nM
- MIC ([1]; strain UFR24 (K. pneumoniae)): 16 µg/mL
- MIC ([2]; strain UFR51 (E. cloacae)): 4 µg/mL
- MIC ([3]; strain UFR18 (E. coli)): 4 µg/mL
- MIC ([4]; strain 6299 (K. pneumoniae)): 16 µg/mL
- MIC [6]: 16 µg/mL
- MIC ([7]; strain UFR39 (K. pneumoniae)): 4 µg/mL
- MIC (E. coli RGN238 (OXA-1); strain RGN238 (E. coli)): 32 µg/mL
- MIC (E. cloacae P99 (AmpC); strain P99 (E. cloacae)): 8 µg/mL
- MIC ([8]; strain 131119 (E. coli)): 4 µg/mL
- MIC [10]: 16 µg/mL
- MIC [12]: 16 µg/mL
- MIC ([13]; strain UFR74 (E. coli)): 16 µg/mL
- MIC ([14]; strain UFR32 (E. coli)): 8 µg/mL
- MIC ([15]; BAA1898, strain BAA-1898 (K. pneumoniae), read-out: MIC compounds of the invention alone): 8 µg/mL
- MIC ([16]; strain CIP107051 (P. aeruginosa), read-out: MIC compounds of the invention alone): > 32 µg/mL
- MIC ([18]; strain UFR61O (E. coli)): 16 µg/mL
- MIC ([20]; strain UFR77 (K. pneumoniae)): 8 µg/mL
- IC50 (AmpC (P99)): 40 nM
- IC50 (OXA-1; class (D), nitrocefin 200 μM, 30 min pre-incubation, read-out: IC50 β-lactamase OXA-1): 1400 nM
